Active and inactive are the calls of the source.
Legend:
[1] = NIH3T3 cell viability loss – ATP luminescence, mouse fibroblasts, counter-screen, dose response (AID 2010); type: functional, cell-based;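 also: cells exposed to compound for about 90 hours before reading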
Beta-galactosidase [2] = target: T1, Beta-galactosidase (Escherichia coli, UniProt Q8VNN2); experiment: detection-enzyme interference by beta-gal modulators – biochemical, E. coli enzyme, set 3, artefact control for CCR6 antagonist project, dose response (AID 504712); type: functional
T1 sequence (Q8VNN2 whole entry): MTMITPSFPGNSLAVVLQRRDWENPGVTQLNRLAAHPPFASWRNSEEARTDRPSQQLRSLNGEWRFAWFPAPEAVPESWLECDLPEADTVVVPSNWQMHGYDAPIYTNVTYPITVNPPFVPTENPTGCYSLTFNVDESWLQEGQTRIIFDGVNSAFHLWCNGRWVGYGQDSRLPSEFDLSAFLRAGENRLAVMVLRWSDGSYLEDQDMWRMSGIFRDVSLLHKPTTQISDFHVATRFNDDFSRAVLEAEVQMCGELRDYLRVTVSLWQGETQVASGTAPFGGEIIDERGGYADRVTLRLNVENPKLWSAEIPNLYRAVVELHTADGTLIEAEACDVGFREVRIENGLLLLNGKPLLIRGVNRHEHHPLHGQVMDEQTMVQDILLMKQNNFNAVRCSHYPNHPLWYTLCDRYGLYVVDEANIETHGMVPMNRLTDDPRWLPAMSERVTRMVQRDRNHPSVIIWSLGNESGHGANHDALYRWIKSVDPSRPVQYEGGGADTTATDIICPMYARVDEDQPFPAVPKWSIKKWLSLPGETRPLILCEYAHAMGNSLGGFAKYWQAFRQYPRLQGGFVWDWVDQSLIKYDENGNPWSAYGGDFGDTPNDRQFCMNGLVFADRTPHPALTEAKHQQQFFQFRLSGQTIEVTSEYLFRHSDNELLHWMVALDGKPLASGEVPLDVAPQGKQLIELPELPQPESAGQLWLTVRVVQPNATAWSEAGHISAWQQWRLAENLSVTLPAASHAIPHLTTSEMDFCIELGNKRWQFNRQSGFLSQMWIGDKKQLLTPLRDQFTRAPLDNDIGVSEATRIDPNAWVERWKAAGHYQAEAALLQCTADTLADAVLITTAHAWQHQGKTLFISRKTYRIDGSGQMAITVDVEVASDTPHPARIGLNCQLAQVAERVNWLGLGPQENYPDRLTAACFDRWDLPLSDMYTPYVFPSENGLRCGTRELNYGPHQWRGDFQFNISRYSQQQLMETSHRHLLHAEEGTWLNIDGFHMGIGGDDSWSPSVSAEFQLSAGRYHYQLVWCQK

[3] = Trypanosoma cruzi growth suppression in host cells – NIH3T3 host cells, beta-gal luminescence, confirmation (AID 2044); type: functional, cell-based;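 also: intracellular parasites grown in NIH/3T3 mouse fibroblasts as host cells; luminescent beta-galactosidase reporter signal from transgenic T. cruzi replicating inside host cells; inhibitors lower the luminescence signal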
[4] = target: T2, Microphthalmia-associated transcription factor (Homo sapiens, UniProt O75030); experiment: reducers of TRPM1 reporter luminescence, concentration series – cell-based, SK-MEL-5, cherry-picked, set 3, MITF inhibitor project, dose response (AID 493073); type: functional;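 also: SK-MEL-5 melanoma cells with luciferase driven by the MITF target TRPM1 promoter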
T2 sequence (O75030 whole entry): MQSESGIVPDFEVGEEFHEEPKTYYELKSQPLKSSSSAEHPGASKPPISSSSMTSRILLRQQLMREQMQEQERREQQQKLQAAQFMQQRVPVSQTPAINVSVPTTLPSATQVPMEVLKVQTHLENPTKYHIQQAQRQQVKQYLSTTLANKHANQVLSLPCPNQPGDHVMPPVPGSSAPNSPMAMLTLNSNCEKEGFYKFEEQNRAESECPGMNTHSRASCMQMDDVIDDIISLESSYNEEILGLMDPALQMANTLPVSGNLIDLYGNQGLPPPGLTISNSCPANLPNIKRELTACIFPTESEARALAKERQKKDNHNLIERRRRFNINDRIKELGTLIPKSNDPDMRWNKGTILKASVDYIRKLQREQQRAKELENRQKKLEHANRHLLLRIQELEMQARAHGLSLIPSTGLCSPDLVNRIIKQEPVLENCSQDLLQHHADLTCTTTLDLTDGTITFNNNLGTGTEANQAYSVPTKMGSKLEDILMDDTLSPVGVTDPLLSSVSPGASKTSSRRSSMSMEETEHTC

A-375 [5] = experiment: proliferation inhibition in MITF-low A375 cells – cell-based, cherry-pick samples, set 2, counter-screen for MITF modulator project, dose response (AID 540335); type: functional; details: Homo sapiens
[6] = target: Lysine-specific demethylase 4C (Homo sapiens, UniProt Q9H3R0); experiment: inhibition of JMJD2C H3K9me3 demethylation – biochemical, DELFIA europium, cherry-picked samples, dose response (AID 488835); type: functional
[7] = NIH-3T3 fibroblast cytotoxicity, dose response, cytotoxicity control, cell-based, fluorescence, Alamar Blue, secondary assay (AID 2327); type: functional;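 also: NIH-3T3 mouse fibroblasts cultured with fluconazole at 8 µg/mL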
Nonstructural protein 1 = Nonstructural protein 1 (Influenza A virus, UniProt Q194T2); type: functional, Influenza A virus (A/California/07/2009(H1N1))
SUMO E1/E2 = SUMO E1/E2 (Homo sapiens, UniProt P63279+Q9UBE0+Q9UBT2); experiment: SAR analysis of SUMOylation using HTRF in an in-Vitro dose response assay. [Related pubchem assays (depositor defined):AID2006, AID2011, AID2018, AID2069, AID2658]; type: functional
Sequence of SUMO E1/E2 (Q9UBE0 whole entry): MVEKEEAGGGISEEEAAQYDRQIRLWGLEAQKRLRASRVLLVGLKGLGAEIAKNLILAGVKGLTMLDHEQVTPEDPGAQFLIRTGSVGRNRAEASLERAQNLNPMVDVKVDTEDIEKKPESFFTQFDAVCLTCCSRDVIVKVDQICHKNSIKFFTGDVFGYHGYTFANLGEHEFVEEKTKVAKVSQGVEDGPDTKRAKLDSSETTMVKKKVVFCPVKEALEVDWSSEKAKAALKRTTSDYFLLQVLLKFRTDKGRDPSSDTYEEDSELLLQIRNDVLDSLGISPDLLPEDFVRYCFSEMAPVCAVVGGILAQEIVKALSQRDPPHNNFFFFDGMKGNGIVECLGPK
Sequence of SUMO E1/E2 (Q9UBT2 whole entry): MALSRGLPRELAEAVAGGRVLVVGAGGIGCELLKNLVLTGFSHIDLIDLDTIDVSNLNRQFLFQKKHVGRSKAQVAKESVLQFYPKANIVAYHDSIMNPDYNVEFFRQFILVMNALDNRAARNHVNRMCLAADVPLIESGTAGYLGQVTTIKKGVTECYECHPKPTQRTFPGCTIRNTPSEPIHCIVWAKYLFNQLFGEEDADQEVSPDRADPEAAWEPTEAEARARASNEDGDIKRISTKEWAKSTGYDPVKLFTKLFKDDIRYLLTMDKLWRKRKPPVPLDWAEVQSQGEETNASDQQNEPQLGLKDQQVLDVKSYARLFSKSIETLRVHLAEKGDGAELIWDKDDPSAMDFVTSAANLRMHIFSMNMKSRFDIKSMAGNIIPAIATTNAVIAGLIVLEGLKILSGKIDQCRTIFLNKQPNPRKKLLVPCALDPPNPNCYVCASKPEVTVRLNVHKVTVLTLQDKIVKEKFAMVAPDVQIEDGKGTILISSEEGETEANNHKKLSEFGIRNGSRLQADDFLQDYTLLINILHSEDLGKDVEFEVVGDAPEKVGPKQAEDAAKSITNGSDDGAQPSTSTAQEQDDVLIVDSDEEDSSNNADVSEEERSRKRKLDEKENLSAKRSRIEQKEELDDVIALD
Sequence of SUMO E1/E2 (P63279 whole entry): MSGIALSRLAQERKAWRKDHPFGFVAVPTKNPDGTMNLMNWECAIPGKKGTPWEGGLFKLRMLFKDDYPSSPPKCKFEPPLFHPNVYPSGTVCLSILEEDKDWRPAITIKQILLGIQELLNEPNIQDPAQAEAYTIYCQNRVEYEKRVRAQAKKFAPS

[8] = target: Glyceraldehyde-3-phosphate dehydrogenase (Homo sapiens, UniProt P04406)
[9] = decrease of insulin promoter-GFP reporter – imaging, high-content screening, mouse beta cells (AID 1628); type: functional; details: MIN6
[10] = MIN6 cell viability loss – mouse insulinoma, cytotoxicity control, dose response (AID 2122); type: functional;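 also: confirmatory high-throughput counterscreen run to flag cytotoxic compounds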
A-375 [11] = experiment: MITF: Counter assay: A375 proliferation Measured in Cell-Based System Using Plate Reader - 2084-03_Inhibitor_Dose_DryPowder_Activity. [Related pubchem assays (depositor defined):AID488944]; type: functional; details: Homo sapiens
Cannabinoid receptor 2 [12] = target: T3, Cannabinoid receptor 2 (Homo sapiens, UniProt P34972); experiment: SAR analysis of agonists of the Cannabinoid Receptor 2 using an Image-Based Assay - Set 3. [Related pubchem assays (depositor defined):AID2013, AID2026]; type: functional
T3 sequence (P34972 whole entry): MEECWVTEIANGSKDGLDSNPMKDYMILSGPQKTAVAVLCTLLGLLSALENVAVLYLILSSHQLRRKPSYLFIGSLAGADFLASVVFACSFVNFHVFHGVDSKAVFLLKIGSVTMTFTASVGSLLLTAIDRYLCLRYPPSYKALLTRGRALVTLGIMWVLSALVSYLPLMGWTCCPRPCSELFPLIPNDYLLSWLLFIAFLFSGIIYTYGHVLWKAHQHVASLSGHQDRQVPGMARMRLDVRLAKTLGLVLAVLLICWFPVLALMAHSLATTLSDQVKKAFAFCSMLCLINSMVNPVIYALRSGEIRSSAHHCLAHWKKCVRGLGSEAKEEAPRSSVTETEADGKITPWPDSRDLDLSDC

[13] = target: T4, G-protein coupled receptor 35 (Homo sapiens, UniProt Q9HC97); experiment: SAR analysis of Antagonists of the GPR35 Receptor using an Image-Based Assay - Set 6. [Related pubchem assays (depositor defined):AID2013, AID2026]; type: functional
T4 sequence (Q9HC97 whole entry): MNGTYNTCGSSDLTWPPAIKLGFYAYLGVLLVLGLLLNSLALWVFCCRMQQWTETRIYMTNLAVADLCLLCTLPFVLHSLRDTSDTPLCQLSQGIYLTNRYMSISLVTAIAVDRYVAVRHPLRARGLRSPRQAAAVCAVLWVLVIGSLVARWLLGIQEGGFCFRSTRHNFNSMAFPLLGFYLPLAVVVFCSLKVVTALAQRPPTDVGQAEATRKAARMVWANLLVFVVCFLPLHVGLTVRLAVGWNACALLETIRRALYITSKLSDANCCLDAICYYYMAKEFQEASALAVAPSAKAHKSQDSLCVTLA

Cannabinoid receptor 1 [14] = target: T5, Cannabinoid receptor 1 (Homo sapiens, UniProt P21554); experiment: SAR analysis of antagonists of the Cannabinoid Receptor 1 using an Image-Based Assay - Set 4. [Related pubchem assays (depositor defined):AID2013, AID2026]; type: functional
T5 sequence (P21554 whole entry): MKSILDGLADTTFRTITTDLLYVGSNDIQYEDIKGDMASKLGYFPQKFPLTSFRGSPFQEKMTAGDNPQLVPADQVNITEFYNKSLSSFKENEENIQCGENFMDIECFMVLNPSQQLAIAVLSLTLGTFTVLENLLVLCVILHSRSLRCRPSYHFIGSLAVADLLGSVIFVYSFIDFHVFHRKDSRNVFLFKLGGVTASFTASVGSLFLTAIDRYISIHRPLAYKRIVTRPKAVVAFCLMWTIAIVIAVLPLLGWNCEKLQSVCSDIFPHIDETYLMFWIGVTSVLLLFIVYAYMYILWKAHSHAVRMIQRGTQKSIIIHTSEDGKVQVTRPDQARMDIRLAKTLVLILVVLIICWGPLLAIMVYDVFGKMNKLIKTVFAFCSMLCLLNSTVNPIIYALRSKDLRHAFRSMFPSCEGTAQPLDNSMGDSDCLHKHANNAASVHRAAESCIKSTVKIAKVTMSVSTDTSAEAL

Cannabinoid receptor 1 [15] = target: T5, Cannabinoid receptor 1; experiment: SAR analysis of agonists of the Cannabinoid Receptor 1 using an Image-Based Assay - Set 4. [Related pubchem assays (depositor defined):AID2013, AID2026]; type: functional
[16] = target: G-protein coupled receptor 55 (Homo sapiens, UniProt Q9Y2T6); experiment: SAR Analysis of Selective Antagonists of GPR55 using an Image-Based Assay - Set 4. [Related pubchem assays (depositor defined):AID2013, AID2026]; type: functional;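 also: antagonism of response to 5 µM lysophosphatidylinositol agonist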
Sequence of G-protein coupled receptor 55 (Q9Y2T6 whole entry): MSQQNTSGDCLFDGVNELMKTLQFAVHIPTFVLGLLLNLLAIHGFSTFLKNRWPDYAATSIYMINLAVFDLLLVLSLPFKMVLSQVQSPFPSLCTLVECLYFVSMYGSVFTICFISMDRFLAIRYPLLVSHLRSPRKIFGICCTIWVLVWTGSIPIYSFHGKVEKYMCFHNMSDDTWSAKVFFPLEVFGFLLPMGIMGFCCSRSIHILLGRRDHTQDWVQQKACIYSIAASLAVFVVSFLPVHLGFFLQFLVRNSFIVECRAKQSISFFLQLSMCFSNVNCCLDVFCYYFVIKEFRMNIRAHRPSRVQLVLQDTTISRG

Cannabinoid receptor 2 [17] = target: T3, Cannabinoid receptor 2; experiment: SAR analysis of antagonists of the Cannabinoid Receptor 2 using an Image-Based Assay - Set 3. [Related pubchem assays (depositor defined):AID2013, AID2026]; type: functional
[18] = target: T4, G-protein coupled receptor 35; experiment: SAR analysis of Agonists of the GPR35 Receptor using an Image-Based Assay - Set 4. [Related pubchem assays (depositor defined):AID2013, AID2026]; type: functional
[19] = target: T6, Delta-type opioid receptor (Homo sapiens, UniProt P41143); experiment: HTS Image-Based Screen for Agonists of the DOR Receptor. [Related pubchem assays (depositor defined):AID1777, AID1786, AID2133]; type: functional
T6 sequence (P41143 whole entry): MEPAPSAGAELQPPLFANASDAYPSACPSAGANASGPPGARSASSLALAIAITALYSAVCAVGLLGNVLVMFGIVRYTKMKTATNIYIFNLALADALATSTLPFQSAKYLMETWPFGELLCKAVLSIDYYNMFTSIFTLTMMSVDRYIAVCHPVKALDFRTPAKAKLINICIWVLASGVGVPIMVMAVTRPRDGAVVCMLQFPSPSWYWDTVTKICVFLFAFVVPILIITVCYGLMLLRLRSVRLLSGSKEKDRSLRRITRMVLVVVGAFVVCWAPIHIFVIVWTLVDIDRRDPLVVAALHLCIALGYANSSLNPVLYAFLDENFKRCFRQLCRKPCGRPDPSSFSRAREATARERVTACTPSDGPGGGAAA

Beta-galactosidase [20] = target: T1, Beta-galactosidase; type: functional
[21] = target: T7, Kappa-type opioid receptor (Homo sapiens, UniProt P41145); type: functional
T7 sequence (P41145 whole entry): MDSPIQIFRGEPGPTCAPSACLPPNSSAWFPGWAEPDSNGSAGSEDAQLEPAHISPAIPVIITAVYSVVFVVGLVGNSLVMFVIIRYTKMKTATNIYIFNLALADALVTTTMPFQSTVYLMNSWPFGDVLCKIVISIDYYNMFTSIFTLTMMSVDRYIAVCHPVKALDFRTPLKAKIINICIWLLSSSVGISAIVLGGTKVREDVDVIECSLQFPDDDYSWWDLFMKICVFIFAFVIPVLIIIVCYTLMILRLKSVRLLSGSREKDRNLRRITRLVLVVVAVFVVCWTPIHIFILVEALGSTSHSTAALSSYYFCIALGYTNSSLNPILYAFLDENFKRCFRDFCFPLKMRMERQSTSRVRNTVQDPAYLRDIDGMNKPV

[22] = target: T6, Delta-type opioid receptor; experiment: HTS Image-Based Screen for Antagonists of the DOR Receptor. [Related pubchem assays (depositor defined):AID1777, AID1785, AID1786, AID2133]; type: functional
[23] = target: T7, Kappa-type opioid receptor; type: functional; remark: listed apart in the source
Mu-type opioid receptor = Mu-type opioid receptor (Homo sapiens, UniProt P35372); experiment: HTS Image-Based Screen for Agonists of the MOR Receptor. [Related pubchem assays (depositor defined):AID1777, AID1785, AID1786, AID2133]; type: functional;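 also: imaging of beta-arrestin GFP recruitment into spots after receptor activation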
[24] = target: T8, Mannose-6-phosphate isomerase (Homo sapiens, UniProt P34949); experiment: phosphomannose isomerase inhibition – biochemical, fluorescence intensity, confirmation (AID 1535)
T8 sequence (P34949 whole entry): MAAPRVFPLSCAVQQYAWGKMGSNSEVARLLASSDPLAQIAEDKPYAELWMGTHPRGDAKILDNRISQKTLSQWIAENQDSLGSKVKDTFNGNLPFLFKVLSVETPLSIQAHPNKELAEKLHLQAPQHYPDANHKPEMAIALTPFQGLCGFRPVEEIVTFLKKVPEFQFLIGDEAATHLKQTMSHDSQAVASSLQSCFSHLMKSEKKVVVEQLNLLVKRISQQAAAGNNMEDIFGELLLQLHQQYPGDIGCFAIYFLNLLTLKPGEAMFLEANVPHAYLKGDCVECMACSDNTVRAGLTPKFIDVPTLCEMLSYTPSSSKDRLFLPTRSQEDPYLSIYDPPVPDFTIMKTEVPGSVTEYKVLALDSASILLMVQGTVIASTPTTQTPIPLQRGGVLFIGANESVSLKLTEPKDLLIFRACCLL

Phosphomannomutase 2 = Phosphomannomutase 2 (Homo sapiens, UniProt O15305); experiment: Counter screen SAR assay for PMM2 inhibitors via a fluorescence intensity assay. [Related pubchem assays (depositor defined):AID1545, AID1574]
Cytochrome P450 1A2 = target: T9, Cytochrome P450 1A2 (Homo sapiens, UniProt P05177);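 also: PubChem cytochrome P450 panel assay, CYP1A2 panel member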
T9 sequence (P05177 whole entry): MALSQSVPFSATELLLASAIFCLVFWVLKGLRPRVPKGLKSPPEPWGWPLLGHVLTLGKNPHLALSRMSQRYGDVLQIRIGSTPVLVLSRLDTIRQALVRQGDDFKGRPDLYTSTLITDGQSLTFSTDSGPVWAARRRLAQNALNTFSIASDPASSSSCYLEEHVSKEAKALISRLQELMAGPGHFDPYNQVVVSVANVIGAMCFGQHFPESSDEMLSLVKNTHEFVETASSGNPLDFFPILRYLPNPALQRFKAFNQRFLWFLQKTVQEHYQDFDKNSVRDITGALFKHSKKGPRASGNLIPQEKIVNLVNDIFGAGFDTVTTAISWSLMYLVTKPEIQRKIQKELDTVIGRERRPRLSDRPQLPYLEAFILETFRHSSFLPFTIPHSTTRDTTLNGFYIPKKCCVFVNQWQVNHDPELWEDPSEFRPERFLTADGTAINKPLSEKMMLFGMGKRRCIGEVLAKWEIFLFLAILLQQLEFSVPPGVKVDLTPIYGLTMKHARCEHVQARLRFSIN

Cytochrome P450 2D6 = Cytochrome P450 2D6 (Homo sapiens, UniProt P10635);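 also: CYP2D6 member of a cytochrome P450 panel assay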
Cytochrome P450 2C9 = Cytochrome P450 2C9 (Homo sapiens, UniProt P11712)
Sequence of Cytochrome P450 2C9 (P11712 whole entry): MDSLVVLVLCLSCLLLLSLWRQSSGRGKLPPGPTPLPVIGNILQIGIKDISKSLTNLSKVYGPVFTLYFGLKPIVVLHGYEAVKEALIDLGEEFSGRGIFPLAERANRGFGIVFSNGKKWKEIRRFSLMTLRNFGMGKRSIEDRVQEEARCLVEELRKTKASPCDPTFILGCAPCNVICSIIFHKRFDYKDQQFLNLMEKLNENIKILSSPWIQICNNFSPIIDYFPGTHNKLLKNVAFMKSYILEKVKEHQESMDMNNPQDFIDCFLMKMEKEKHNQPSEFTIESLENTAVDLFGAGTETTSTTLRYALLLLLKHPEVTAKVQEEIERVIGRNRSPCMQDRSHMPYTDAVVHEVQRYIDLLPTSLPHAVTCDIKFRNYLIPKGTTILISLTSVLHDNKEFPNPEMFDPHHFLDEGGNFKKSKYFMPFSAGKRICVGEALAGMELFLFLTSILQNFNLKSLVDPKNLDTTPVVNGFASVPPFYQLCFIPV

[25] = target: T10, Voltage-gated N-type calcium channel alpha-1B subunit/Amyloid beta A4 precursor protein-binding family A member 1 (Homo sapiens, UniProt Q00975+Q02410); experiment: disruptors of Mint-PDZ/N-type channel peptide interaction – biochemical, HTRF, SAR follow-up (AID 2489); type: functional
[26] = target: T10, Voltage-gated N-type calcium channel alpha-1B subunit/Amyloid beta A4 precursor protein-binding family A member 1; experiment: disruptors of Mint-PDZ/N-type channel peptide interaction – biochemical, HTRF, set 2, SAR follow-up (AID 434980); type: functional
Cytochrome P450 2C19 = Cytochrome P450 2C19 (Homo sapiens, UniProt P33261); experiment: Cytochrome panel assay with activity outcomes. Panel member name: p450-cyp2c19 Compounds with AC50 equal or less than 10 uM are considered active; type: functional

CS(=O)(=O)c1ccc([S+]([O-])CC(=O)OCc2ccccc2)c([N+](=O)[O-])c1 (stereo not given)
EC50 [1]: 2.01 µM (active) | IC50 (Beta-galactosidase [2]): > 66.6 µM (inactive) | EC50 [3]: 3.05 µM (active) | AC50 [4]: 5.46 µM (active) | AC50 (A-375 [5]): 21 µM (active)

Cc1ccc(O)c(NN=C2C(=O)CC(C)(C)CC2=O)c1
AC50 [6]: 10.5 µM (active) | EC50 [7]: > 160 µM (inactive) | IC50 (Nonstructural protein 1): 13.2 µM (active)

NS(=O)(=O)c1ccc2c(c1)C1C=CCC1C(c1ccc([N+](=O)[O-])cc1)N2 (stereo not given)
IC50 (SUMO E1/E2): > 100 µM (inactive) | IC50 [8]: > 100 µM (not active)

Cn1c2c(c(=O)[nH]c1=O)C(c1cccc(O)c1)C1=C(O)c3ccccc3C1=N2 (stereo not given)
IC50 [9]: 1.87 µM (active) | IC50 [10]: 1.92 µM (active)

O=C(Nc1ccc(-c2cn3c(n2)SCC3)cc1)c1ccco1
AC50 (A-375 [11]): > 35 µM (active) | AC50 (A-375 [5]): > 35 µM (active)

Cc1nnc(-c2cccc(Br)c2)c2cn(-c3ccccc3)nc12
EC50 (Cannabinoid receptor 2 [12]): > 32 µM (inactive) | IC50 [13]: > 32 µM (inactive) | IC50 (Cannabinoid receptor 1 [14]): 1.68 µM (active) | EC50 (Cannabinoid receptor 1 [15]): > 32 µM (inactive) | IC50 [16]: 3.95 µM (active) | IC50 (Cannabinoid receptor 2 [17]): 10.4 µM (inactive) | EC50 [18]: > 32 µM (inactive)

CCN(CCCNC(=O)C1CCN(S(=O)(=O)N2CCC3(CC2)OCCO3)CC1)c1ccccc1
EC50 [19]: > 32 µM (inactive) | EC50 (Beta-galactosidase [20]): > 31.5 µM (inactive) | IC50 [21]: 9.69 µM | IC50 [22]: > 32 µM (inactive) | IC50 [23]: 9.46 µM (active) | EC50 (Mu-type opioid receptor): > 32 µM (inactive)

O=[N+]([O-])c1ccc(/N=c2/ssnc2Cl)c([N+](=O)[O-])c1
IC50 [24]: 3.52 µM (active) | IC50 (Phosphomannomutase 2): 58.4 µM (active)

COC(=O)N1CCC[C@@]2(CCN(c3ccncc3)C2)C1
AC50 (Cytochrome P450 1A2): inconclusive | AC50 (Cytochrome P450 2D6): inconclusive | AC50 (Cytochrome P450 2C9): inconclusive

Cc1ccc2nc3c(cc(C(=O)NC4CCCC4)c(=N)n3C3CCCC3)c(=O)n2c1
EC50 (Cannabinoid receptor 2 [12]): > 32 µM (inactive) | IC50 [13]: > 32 µM (inactive) | IC50 (Cannabinoid receptor 1 [14]): 24.9 µM (inactive) | EC50 (Cannabinoid receptor 1 [15]): > 32 µM (inactive) | IC50 [16]: 8.18 µM (active) | IC50 (Cannabinoid receptor 2 [17]): > 32 µM (inactive) | EC50 [18]: > 32 µM (inactive)

COc1ccccc1COC(=O)COC(=O)c1cc(-c2ccco2)nc2ccccc12
IC50 (SUMO E1/E2): 12.9 µM (active) | IC50 [25]: 9.09 µM (active) | IC50 [26]: 6.59 µM (active)

CS(=O)(=O)N1CCC2(CCN(c3cccc(-c4ccccc4)c3)CC2)CC1
AC50 (Cytochrome P450 2C19): inconclusive | AC50 (Cytochrome P450 1A2): inconclusive | AC50 (Cytochrome P450 2C9): inconclusive

From ChEMBL document CHEMBL1201862, “PubChem BioAssay data set” (2004)
